Results: ChEMBL document CHEMBL4507257, “Data for DCP probe ABT-100” (2021)

What was measured:
[1] = system: Tyrosine-protein kinase ABL1 (Homo sapiens), P00519 [M351T]; settings: Compound concentration 1000.0 nM
[2] = biological target: Serine/threonine-protein kinase RIO1 (Homo sapiens) (UniProt Q9BRS2); settings: Compound concentration 1000.0 nM
[3] = biological target: Phosphatidylinositol 4-phosphate 5-kinase type-1 gamma (Homo sapiens) (UniProt O60331); settings: Compound concentration 1000.0 nM
[4] = biological target: Serine/threonine-protein kinase Nek11 (Homo sapiens) (UniProt Q8NG66); settings: Compound concentration 1000.0 nM
[5] = biological target: Mitogen-activated protein kinase 6 (Homo sapiens) (UniProt Q16659); settings: Compound concentration 1000.0 nM
[6] = biological target: Beta-adrenergic receptor kinase 1 (Homo sapiens) (UniProt P25098); settings: Compound concentration 1000.0 nM
[7] = biological target: Ephrin type-A receptor 7 (Homo sapiens) (UniProt Q15375); settings: Compound concentration 1000.0 nM
[8] = biological target: Serine/threonine-protein kinase 16 (Homo sapiens) (UniProt O75716); settings: Compound concentration 1000.0 nM
[9] = biological target: Serine/threonine-protein kinase SIK3 (Homo sapiens) (UniProt Q9Y2K2); settings: Compound concentration 1000.0 nM
[10] = biological target: Serine/threonine-protein kinase MAK (Homo sapiens) (UniProt P20794); settings: Compound concentration 1000.0 nM
[11] = biological target: Mu-type opioid receptor (Homo sapiens) (UniProt P35372); settings: Compound concentration 10.0 uM
[12] = biological target: MAP kinase-activated protein kinase 5 (Homo sapiens) (UniProt Q8IW41); settings: Compound concentration 1000.0 nM
[13] = biological target: Bone morphogenetic protein receptor type-1B (Homo sapiens) (UniProt O00238); settings: Compound concentration 1000.0 nM
[14] = system: Epidermal growth factor receptor (Homo sapiens), P00533 [L861Q]; settings: Compound concentration 1000.0 nM
[15] = biological target: 5-hydroxytryptamine receptor 1D (Homo sapiens) (UniProt P28221); settings: Compound concentration 10.0 uM
[16] = biological target: Mitogen-activated protein kinase 13 (Homo sapiens) (UniProt O15264); settings: Compound concentration 1000.0 nM
[17] = biological target: TGF-beta receptor type-1 (Homo sapiens) (UniProt P36897); settings: Compound concentration 1000.0 nM
[18] = biological target: Calcium/calmodulin-dependent protein kinase type II subunit alpha (Homo sapiens) (UniProt Q9UQM7); settings: Compound concentration 1000.0 nM
[19] = biological target: Dual specificity mitogen-activated protein kinase kinase 7 (Homo sapiens) (UniProt O14733); settings: Compound concentration 1000.0 nM
[20] = biological target: Calcium-dependent protein kinase 1 (Plasmodium falciparum) (UniProt P62344); settings: Compound concentration 1000.0 nM
[21] = biological target: Phosphatidylinositol 4,5-bisphosphate 3-kinase catalytic subunit alpha isoform (Homo sapiens) (UniProt P42336); settings: Compound concentration 1000.0 nM
[22] = biological target: Inhibitor of nuclear factor kappa-B kinase subunit beta (Homo sapiens) (UniProt O14920); settings: Compound concentration 1000.0 nM
[23] = biological target: T1, 5-hydroxytryptamine receptor 1A (Homo sapiens) (UniProt P08908); settings: Compound concentration 10.0 uM
T1 sequence (whole entry): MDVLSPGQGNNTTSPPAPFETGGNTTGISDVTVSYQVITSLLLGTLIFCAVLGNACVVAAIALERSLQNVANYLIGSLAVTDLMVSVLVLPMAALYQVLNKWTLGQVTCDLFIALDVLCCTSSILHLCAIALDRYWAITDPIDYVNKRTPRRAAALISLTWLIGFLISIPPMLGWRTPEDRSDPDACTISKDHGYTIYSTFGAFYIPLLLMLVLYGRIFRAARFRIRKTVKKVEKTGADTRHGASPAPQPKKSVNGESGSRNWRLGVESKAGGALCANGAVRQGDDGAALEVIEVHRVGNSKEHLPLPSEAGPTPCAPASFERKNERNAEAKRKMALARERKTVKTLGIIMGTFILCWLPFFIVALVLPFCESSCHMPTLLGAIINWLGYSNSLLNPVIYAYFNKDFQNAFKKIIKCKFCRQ

[24] = biological target: BMP-2-inducible protein kinase (Homo sapiens) (UniProt Q9NSY1); settings: Compound concentration 1000.0 nM
[25] = system: Tyrosine-protein kinase ABL1 (Homo sapiens), P00519 [F317I]; settings: Compound concentration 1000.0 nM
[26] = biological target: Membrane-associated tyrosine- and threonine-specific cdc2-inhibitory kinase (Homo sapiens) (UniProt Q99640); settings: Compound concentration 1000.0 nM
[27] = biological target: Receptor tyrosine-protein kinase erbB-4 (Homo sapiens) (UniProt Q15303); settings: Compound concentration 1000.0 nM
[28] = system: Tyrosine-protein kinase ABL1 (Homo sapiens), P00519 [Y253F]; settings: Compound concentration 1000.0 nM
[29] = biological target: 5-hydroxytryptamine receptor 2B (Homo sapiens) (UniProt P41595); settings: Compound concentration 10.0 uM
[30] = biological target: Serine/threonine-protein kinase LATS1 (Homo sapiens) (UniProt O95835); settings: Compound concentration 1000.0 nM
[31] = biological target: TRAF2 and NCK-interacting protein kinase (Homo sapiens) (UniProt Q9UKE5); settings: Compound concentration 1000.0 nM
[32] = biological target: Serine/threonine-protein kinase 32C (Homo sapiens) (UniProt Q86UX6); settings: Compound concentration 1000.0 nM
[33] = biological target: Mitogen-activated protein kinase 10 (Homo sapiens) (UniProt P53779); settings: Compound concentration 1000.0 nM
[34] = biological target: Serine/threonine-protein kinase 24 (Homo sapiens) (UniProt Q9Y6E0); settings: Compound concentration 1000.0 nM
[35] = biological target: Ephrin type-B receptor 3 (Homo sapiens) (UniProt P54753); settings: Compound concentration 1000.0 nM
[36] = biological target: Tyrosine-protein kinase Fyn (Homo sapiens) (UniProt P06241); settings: Compound concentration 1000.0 nM
[37] = biological target: Tyrosine-protein kinase JAK1 (Homo sapiens) (UniProt P23458); settings: Compound concentration 1000.0 nM
[38] = biological target: Ribosomal protein S6 kinase alpha-4 (Homo sapiens) (UniProt O75676); settings: Compound concentration 1000.0 nM
[39] = biological target: Serine/threonine-protein kinase 4 (Homo sapiens) (UniProt Q13043); settings: Compound concentration 1000.0 nM
Serine/threonine-protein kinase 4 (Homo sapiens), sequence (Q13043 whole entry): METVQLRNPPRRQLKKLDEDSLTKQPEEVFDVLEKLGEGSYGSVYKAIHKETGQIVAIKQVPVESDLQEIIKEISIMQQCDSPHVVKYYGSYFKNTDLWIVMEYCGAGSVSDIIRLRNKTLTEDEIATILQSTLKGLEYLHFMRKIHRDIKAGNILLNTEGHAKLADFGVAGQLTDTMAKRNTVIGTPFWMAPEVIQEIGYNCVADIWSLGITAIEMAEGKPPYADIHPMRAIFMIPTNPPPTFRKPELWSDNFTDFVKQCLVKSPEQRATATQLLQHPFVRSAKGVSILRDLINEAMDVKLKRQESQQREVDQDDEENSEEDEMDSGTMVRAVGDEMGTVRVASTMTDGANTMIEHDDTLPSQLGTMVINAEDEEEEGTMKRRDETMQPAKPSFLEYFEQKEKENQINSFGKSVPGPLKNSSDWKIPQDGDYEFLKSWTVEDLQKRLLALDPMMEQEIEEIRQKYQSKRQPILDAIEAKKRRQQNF

Serine/threonine-protein kinase SIK3 (Homo sapiens), sequence (Q9Y2K2 whole entry, looked up): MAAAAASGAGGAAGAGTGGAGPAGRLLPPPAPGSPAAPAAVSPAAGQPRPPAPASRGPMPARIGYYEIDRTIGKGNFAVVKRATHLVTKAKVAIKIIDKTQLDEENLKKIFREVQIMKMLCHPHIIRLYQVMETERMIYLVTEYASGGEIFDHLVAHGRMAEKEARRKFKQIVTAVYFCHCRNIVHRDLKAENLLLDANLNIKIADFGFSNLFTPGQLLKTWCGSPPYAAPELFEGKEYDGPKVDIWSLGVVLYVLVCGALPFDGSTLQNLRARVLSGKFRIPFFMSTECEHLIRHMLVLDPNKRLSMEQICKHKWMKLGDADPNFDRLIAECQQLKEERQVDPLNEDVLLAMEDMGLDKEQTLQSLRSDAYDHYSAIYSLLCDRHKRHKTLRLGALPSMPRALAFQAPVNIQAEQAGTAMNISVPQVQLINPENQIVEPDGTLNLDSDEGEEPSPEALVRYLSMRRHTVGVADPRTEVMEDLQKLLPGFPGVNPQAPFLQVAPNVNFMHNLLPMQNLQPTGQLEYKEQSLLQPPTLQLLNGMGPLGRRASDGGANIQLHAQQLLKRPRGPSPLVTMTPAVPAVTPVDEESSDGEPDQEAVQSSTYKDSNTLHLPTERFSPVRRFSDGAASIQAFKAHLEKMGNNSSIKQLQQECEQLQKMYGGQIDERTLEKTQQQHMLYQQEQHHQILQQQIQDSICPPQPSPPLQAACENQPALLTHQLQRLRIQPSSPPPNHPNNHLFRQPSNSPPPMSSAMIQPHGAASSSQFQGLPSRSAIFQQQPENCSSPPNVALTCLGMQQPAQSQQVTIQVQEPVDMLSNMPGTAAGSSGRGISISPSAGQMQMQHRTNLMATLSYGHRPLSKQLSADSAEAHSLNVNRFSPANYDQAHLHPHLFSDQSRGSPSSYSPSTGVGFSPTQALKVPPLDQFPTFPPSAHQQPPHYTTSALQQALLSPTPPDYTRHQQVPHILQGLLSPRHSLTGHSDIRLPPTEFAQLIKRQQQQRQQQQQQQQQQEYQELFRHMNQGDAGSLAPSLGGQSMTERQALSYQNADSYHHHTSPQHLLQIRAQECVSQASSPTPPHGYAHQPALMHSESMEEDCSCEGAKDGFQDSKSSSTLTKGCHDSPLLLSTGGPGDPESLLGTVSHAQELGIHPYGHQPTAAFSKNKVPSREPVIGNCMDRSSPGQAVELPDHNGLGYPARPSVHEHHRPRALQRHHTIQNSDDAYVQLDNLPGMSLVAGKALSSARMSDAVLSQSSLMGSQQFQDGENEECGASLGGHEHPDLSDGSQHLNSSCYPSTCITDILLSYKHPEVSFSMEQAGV
Mu-type opioid receptor (Homo sapiens), sequence (P35372 whole entry): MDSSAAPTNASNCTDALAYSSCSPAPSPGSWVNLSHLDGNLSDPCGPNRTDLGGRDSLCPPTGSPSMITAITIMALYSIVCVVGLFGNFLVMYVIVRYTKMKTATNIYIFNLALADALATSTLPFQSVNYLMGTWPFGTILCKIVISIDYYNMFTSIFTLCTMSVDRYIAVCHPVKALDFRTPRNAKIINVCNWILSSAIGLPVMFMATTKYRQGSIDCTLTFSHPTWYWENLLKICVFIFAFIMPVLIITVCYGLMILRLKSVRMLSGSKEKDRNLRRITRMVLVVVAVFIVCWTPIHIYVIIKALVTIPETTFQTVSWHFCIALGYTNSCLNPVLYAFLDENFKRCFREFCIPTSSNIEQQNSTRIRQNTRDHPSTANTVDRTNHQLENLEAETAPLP
Calcium/calmodulin-dependent protein kinase type II subunit alpha (Homo sapiens), sequence (Q9UQM7 whole entry): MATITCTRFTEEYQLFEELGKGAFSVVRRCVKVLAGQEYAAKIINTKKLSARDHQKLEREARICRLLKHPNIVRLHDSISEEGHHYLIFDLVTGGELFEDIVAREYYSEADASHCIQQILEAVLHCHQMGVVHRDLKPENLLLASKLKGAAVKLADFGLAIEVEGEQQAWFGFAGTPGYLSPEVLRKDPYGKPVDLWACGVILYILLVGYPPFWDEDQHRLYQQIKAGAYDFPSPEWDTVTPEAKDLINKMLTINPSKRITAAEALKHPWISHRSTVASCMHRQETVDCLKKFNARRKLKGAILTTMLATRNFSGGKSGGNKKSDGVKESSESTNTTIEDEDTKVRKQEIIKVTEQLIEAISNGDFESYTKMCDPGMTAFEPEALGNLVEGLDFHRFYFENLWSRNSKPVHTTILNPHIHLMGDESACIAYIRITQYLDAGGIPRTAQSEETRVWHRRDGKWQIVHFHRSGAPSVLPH
Tyrosine-protein kinase JAK1 (Homo sapiens), sequence (P23458 whole entry): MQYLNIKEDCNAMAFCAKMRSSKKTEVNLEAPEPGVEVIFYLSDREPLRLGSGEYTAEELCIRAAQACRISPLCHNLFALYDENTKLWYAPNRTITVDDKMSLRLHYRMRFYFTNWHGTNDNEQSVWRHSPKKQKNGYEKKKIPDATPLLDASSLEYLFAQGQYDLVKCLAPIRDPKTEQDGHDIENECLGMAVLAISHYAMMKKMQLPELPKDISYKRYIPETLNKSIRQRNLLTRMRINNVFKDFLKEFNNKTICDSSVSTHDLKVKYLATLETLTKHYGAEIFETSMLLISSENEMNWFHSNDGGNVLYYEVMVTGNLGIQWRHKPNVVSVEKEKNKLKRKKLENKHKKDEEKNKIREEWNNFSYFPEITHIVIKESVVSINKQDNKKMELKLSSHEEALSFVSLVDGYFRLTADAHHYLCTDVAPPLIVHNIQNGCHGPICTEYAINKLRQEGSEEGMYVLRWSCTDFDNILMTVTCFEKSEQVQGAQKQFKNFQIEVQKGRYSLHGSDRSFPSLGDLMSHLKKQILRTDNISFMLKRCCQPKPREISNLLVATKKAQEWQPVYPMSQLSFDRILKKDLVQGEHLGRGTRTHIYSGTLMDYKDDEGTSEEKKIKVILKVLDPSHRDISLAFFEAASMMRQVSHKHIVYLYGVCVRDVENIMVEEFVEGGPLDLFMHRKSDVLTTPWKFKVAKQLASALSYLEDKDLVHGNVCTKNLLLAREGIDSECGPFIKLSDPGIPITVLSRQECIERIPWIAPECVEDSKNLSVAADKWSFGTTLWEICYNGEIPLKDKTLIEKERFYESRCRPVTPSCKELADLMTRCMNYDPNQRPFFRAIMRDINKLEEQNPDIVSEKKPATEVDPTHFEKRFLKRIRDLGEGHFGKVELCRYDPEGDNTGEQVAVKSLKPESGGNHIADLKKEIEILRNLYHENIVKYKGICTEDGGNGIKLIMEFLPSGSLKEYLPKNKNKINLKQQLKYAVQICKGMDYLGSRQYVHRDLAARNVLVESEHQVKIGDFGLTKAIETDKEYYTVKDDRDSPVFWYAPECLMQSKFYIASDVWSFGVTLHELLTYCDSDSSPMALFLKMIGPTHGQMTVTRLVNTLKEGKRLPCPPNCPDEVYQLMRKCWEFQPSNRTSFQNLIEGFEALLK
Serine/threonine-protein kinase Nek11 (Homo sapiens), sequence (Q8NG66 whole entry): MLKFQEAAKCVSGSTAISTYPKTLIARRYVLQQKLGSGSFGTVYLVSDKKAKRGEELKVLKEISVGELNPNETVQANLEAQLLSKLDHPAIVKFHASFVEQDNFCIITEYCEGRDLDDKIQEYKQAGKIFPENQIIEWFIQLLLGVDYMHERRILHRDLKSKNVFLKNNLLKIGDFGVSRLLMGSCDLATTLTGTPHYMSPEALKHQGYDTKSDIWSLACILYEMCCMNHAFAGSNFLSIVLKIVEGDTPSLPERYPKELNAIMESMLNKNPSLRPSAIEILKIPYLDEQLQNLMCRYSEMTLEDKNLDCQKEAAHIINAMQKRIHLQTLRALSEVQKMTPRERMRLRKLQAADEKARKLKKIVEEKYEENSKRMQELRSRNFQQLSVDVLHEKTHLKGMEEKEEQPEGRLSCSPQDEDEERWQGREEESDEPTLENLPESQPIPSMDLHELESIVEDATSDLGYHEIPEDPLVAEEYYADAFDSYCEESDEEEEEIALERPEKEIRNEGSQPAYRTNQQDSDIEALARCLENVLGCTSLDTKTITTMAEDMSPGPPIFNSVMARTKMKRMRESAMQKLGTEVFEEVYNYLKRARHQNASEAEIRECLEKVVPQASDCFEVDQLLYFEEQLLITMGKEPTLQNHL
Dual specificity mitogen-activated protein kinase kinase 7 (Homo sapiens), sequence (O14733 whole entry): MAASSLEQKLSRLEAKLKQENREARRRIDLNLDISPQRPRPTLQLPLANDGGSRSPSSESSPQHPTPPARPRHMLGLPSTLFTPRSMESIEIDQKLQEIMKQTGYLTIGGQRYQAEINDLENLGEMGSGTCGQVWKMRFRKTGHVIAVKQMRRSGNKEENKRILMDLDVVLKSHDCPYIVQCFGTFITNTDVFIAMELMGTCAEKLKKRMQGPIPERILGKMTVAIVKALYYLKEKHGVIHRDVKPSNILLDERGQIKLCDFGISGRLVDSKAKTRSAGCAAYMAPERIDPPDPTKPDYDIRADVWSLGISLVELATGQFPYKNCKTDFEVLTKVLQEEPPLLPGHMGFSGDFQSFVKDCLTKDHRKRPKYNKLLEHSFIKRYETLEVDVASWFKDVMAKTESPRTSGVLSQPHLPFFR

Structure (SMILES)	residual activity [1] [%]	residual activity [2] [%]	residual activity [3] [%]	residual activity [4] [%]	residual activity [5] [%]	residual activity [6] [%]	residual activity [7] [%]	residual activity [8] [%]	residual activity [9] [%]	residual activity [10] [%]	inhibition [11] [%]	residual activity [12] [%]	residual activity [13] [%]	residual activity [14] [%]	inhibition [15] [%]	residual activity [16] [%]	residual activity [17] [%]	residual activity [18] [%]	residual activity [19] [%]	residual activity [20] [%]	also measured
Cn1cncc1[C@@](O)(COc1ccc(C#N)cc1-c1ccc(OC(F)(F)F)cc1)c1ccc(C#N)cc1 [A-108]	6.2	100	100	100	93	95	100	99	97	99	-3.25	100	96	100	6.65	90	78	84	96	75	residual activity [21]: 72%; residual activity [22]: 100%; inhibition [23]: -6.52%; residual activity [24]: 79%; residual activity [25]: 88%; residual activity [26]: 100%; residual activity [27]: 100%; residual activity [28]: 92%; inhibition [29]: 18.6%; residual activity [30]: 100%; residual activity [31]: 99%; residual activity [32]: 80%; residual activity [33]: 75%; residual activity [34]: 100%; residual activity [35]: 6%; residual activity [36]: 97%; residual activity [37]: 92%; residual activity [38]: 93%; residual activity [39]: 100%
Cn1cncc1[C@](O)(COc1ccc(C#N)cc1-c1ccc(OC(F)(F)F)cc1)c1ccc(C#N)cc1 [ABT-100]	100	72	93	100	85	74	91	99	67	100	16.4	90	77	71	-0.932	87	81	95	100	88	residual activity [21]: 100%; residual activity [22]: 87%; inhibition [23]: 10.8%; residual activity [24]: 97%; residual activity [25]: 100%; residual activity [26]: 100%; residual activity [27]: 81%; residual activity [28]: 94%; inhibition [29]: -5.75%; residual activity [30]: 87%; residual activity [31]: 81%; residual activity [32]: 84%; residual activity [33]: 70%; residual activity [34]: 90%; residual activity [35]: 100%; residual activity [36]: 100%; residual activity [37]: 70%; residual activity [38]: 76%; residual activity [39]: 86%
